Experimental data reported in publication PMC10156859, “Unveiling an indole alkaloid diketopiperazine biosynthetic pathway that features a unique stereoisomerase and multifunctional methyltransferase” (Nature Communications, 2023).
Like-named read-outs stand apart in the source and are kept apart here.

System: T1, NozMT
T1 construct: N-terminal hexahistidine-tagged, codon-optimized synthetic gene in pQE31, E. coli M15(pREP4), Ni-NTA purified
Assay: initial rates, HPLC-UV […] nm, Michaelis-Menten fit
Assay type: biochemical, Nocardiopsis sp. CMB-M0232
Conditions: 2 mM SAM, 10 μM enzyme, 40 mM Tris pH 7.5, 200 mM NaCl, 1% DMSO, 37 °C

Compound	Km (C3 methylation, read-out: apparent Km) [µM]	Km (N1' methylation, read-out: apparent average Km) [µM]
CC(C)=CC[C@]12C[C@@H]3C(=O)N[C@H](Cc4c[nH]c5ccccc45)C(=O)N3[C@H]1N(C)c1ccccc12 [compound 7, cyclo-D-Trp-N1'-methyl-C3'-prenyl-D-Trp]	606	
CC(C)=CC[C@]12C[C@@H]3C(=O)N[C@H](Cc4c[nH]c5ccccc45)C(=O)N3[C@H]1Nc1ccccc12 [compound 6, cyclo-D-Trp-C3'-prenyl-D-Trp]		146
